Legend:
rats = test: Induction of catalepsy in rats (extrapyramidal motor side effects); format: in vivo, rat; details: doses up to 500fold higher compared to the doses effective in the animal models
Procedure: (§1) Extrapyramidal motor side effects in e.g. rodents are measured by the ability of a drug to induce catalepsy. Catalepsy is defined as a state where an animal continues to remain in an unnormal (nonphysiological ‘uncomfortable’) posture for a long time (e.g.: M. E. Stanley and S. D. Glick, Neuropharmacology, 1996; 15: 393-394; C. J. E. Niemegeers and P. Janssen, Life Sci., 1979, […]). For example, if a hindpaw of a rat is placed on an elevated level, e.g. a platform elevated 3 cm above ground level, a normal rat immediately withdraws the hindpaw from the platform to the ground level. A cataleptic rat remains in this unnatural posture even for minutes.

[1] = system: catalepsy induced by haloperidol; test: Catalepsy induced by conventional antidopaminergic drugs such as haloperidol; format: in vivo, rat; details: same dose-range as effective in the animal models
Procedure: as §1

[2] = system: Parkinsonian cynomolgus monkey; test: MPTP Parkinsonian cynomolgus monkey, Laval University Disability Scale; format: in vivo; details: MPTP monkeys
From the text: A typical animal model for idiopathic Parkinson's disease is the Parkinsonian cynomolgus monkey according to P. J. Blanchet et al., Exp. Neurology 1998; 153: 214-222. Monkeys render parkinsonian by repeated injections of 1-methyl-4-phenyl-1,2,3,6-tetrahydropyridine (MPTP). Parkinsonian symptoms are qualitatively assessed by the use of the Laval University Disability Scale (B. Gomez-Mancilla et al., 1993; Mov. Disord. 8: 144-150) measuring the following symptoms: posture, mobility, climbing, gait, holding food, vocalizing, grooming, social interaction.

3-NP treated rats = test: Systemic 3-nitropropionic acid (3-NP) model in rats; format: in vivo, rat; details: for nocturnal akinesia (hypoactivity): after four injections of 3-NP (late Huntington's disease); for nocturnal hyperactivity: after two injections of 3-NP (early Huntington's disease)
From the text: A typical animal model is the systemic 3-nitropropionic acid (3-NP) model in rats according to C. V. Borlongan et al., Brain Res., 1995; 697: 254-257. […] After two injections of 3-NP, rats display nocturnal hyperactivity reflecting symptoms of early Huntington's disease, whereas rats treated with four injections of 3-NP display nocturnal akinesia (hypoactivity) reflecting symptoms of late Huntington's disease. Nocturnal activity is automatically measured in conventional acitivity cages by infrared beams.

[3] = system: patients with Huntington's disease; test: Trial in patients with Huntington's disease; format: in vivo, human; details: add on, 2.5 to 20 mg b.i.d., vs placebo
Procedure: A typical trial to establish the effect of the compounds according to the invention on chorea, voluntary motor performance, and functional disability in patients with Huntington's disease encompasses 32 genetically diagnosed patients. […] The dose of blinded medication is titrated over a period of 3 weeks in a range from 2.5 to 20 mg b.i.d. Then the medication is held constant for 1 week. Assessments are performed in the week before and at the last day of the trial. Chorea is scored using the abnormal involuntary movement scale (AIMS, W. Guy, in: ECDEU assessment manual. Rockville Md.: US dept. of health, education and welfare, 1976: 534-537), the unified Huntington's disease rating scale (UHDRS, Huntington study group, 1996, Movement Disord, 11: 136-42), and judgement of video recordings. Voluntary motor performance is assessed using the UHDRS motor scale. Patients and their partners complete a questionnaire regarding functional disability.

[4] = system: genetically dystonic hamsters; test: Mutant dystonic hamster; details: in vivo
From the text: A typical animal model is the mutant dystonic hamster according to A. Richter and […], Prog. Neurobiol. 1998; 54: 633-677. In this genetically dystonic hamsters, dystonic attacks are provoked by taking the animal from the home cage and placing it on a balance. The dystonic syndrome consists of a sequence of abnormal movements, and the severity of the single symptoms is rated by a scoring system.

[5] = system: patients with cervical dystonia (spasmodic torticollis); test: Double-blind, placebo-controlled study in cervical dystonia (TWSTRS); format: in vivo, human; details: 2.5 mg to 20 mg b.i.d.
Pietrain pig = test: Campus Syndrome in the Pietrain pig (tremor); format: in vivo
From the text: (§2) Typical genetic models in mutant animals are the Campus Syndrome in the Pietrain pig according to A. Richter et al. (Exp. Neurology, 1995; 134: 205-213) or the Weaver mutant mouse according to J. R. Simon and B. Ghetti (Mol. Neurobiol., 1994; 9: 183-189). In the Campus Syndrome model, these mutant pigs show a high-frequency tremor when standing and during locomotion, but not while lying at rest. Assessment of tremor is made by accelerometric recording. In the Weaver mutant mouse, degenerative cerebellar atrophy is fould in association with tremor, gait instability, and toppling over the sides after a few steps.

Weaver mutant mouse = Weaver mutant mouse (locomotor activity); details: in vivo
From the text: as §2

[6] = system: oxotremorine-induced tremor; test: Oxotremorine-induced tremor; details: in vivo
Procedure: A typical animal model for drug-induced tremors is the oxotremorine-induced tremor (e.g. H. Hallberg and O. Almgren, Acta Physiol. Scand., 1987; 129: 407-13; J. G. Clement and W. R. Dyck, J. Pharmacol. Meth., 1989; 22: 25-36). Oxotremorine induces tremor which is measured by a rating scale.

[7] = system: rats after cardiac arrest; test: Posthypoxic myoclonus in rats; details: rat, in vivo
Procedure: A typical animal model for myoclonus is myoclonus induced by an acute hypoxic episode according to D. D. Truong et al., Mov. Dsiord., 1994; 9: 201-206). In this model of posthypoxic myoclonus, rats undergo a cardiac arrest for 8 minutes and are resuscitated thereafter. Myoclonic jerks occur spontaneously but can be provoked by auditory stimulation, too, worsening over the days following cardiac arrest.

5-HT1A receptor = target: T1, 5-HT1A receptor (Homo sapiens, UniProt P08908); details: compared with buspirone (IC50 […] nmol/l)
T1 sequence (P08908 1-422): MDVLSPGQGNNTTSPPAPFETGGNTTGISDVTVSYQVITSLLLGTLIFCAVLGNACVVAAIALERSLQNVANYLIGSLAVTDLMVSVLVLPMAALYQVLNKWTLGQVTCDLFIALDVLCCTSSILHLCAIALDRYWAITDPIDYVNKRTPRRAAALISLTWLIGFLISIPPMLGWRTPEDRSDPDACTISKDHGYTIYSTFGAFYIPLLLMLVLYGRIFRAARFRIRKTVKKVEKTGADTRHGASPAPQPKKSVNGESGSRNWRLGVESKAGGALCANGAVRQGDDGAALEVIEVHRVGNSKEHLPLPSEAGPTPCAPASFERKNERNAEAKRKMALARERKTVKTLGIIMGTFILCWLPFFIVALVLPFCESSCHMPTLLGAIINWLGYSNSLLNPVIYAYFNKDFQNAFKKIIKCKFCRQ

| SMILES | induction of catalepsy (rats) | prevention of catalepsy induced by conventional antidopaminergic drugs [1] | reversal of already existing catalepsy induced by conventional antidopaminergic drugs such as haloperidol [1] | parkinsonian symptoms (Laval University Disability Scale) [2] | total activity [2] | nocturnal akinesia (hypoactivity) (3-NP treated rats) | nocturnal hyperactivity (3-NP treated rats) | voluntary and involuntary motor performance (AIMS, UHDRS, video) [3] | severity of dystonic symptoms (score) [4] | TWSTRS scores [5] | tremor when standing and during locomotion (Pietrain pig) | locomotor activity (Weaver mutant mouse) | oxotremorine-induced tremors (rating scale) [6] | number of spontaneous and auditory-evoked myoclonic jerks [7] | agonist potency at the 5-HT1A receptor in contrast to buspirone (5-HT1A receptor) |
| --- | --- | --- | --- | --- | --- | --- | --- | --- | --- | --- | --- | --- | --- | --- | --- |
| Fc1ccc(-c2cncc(CNCC3CCc4ccccc4O3)c2)cc1 (racemic) [(R/S)-(−/+)-2-[5-(4-fluorophenyl)-3-pyridylmethylaminomethyl]-chromane] | do not induce any catalepsy | able to prevent catalepsy | reverses already existing catalepsy | reduced all the parkinsonian symptoms | increased total activity | reduce | reduce | significant improvement | dose-dependently reduce the severity of dystonic symptoms | significant improvement | reduce disabling tremor | enhance locomotor activity | inhibit oxotremorine-induced tremors | dose-dependently reduce the number of spontaneous and auditory-evoked myoclonic jerks | more potent agonists |
| Fc1ccc(-c2cncc(CNC[C@@H]3CCc4ccccc4O3)c2)cc1 [(S)-(+)-2-[5-(4-fluorophenyl)-3-pyridylmethylaminomethyl]-chromane] | do not induce any catalepsy | able to prevent catalepsy | reverses already existing catalepsy | reduced all the parkinsonian symptoms | increased total activity | reduce | reduce | significant improvement | dose-dependently reduce the severity of dystonic symptoms | significant improvement | reduce disabling tremor | enhance locomotor activity | inhibit oxotremorine-induced tremors | dose-dependently reduce the number of spontaneous and auditory-evoked myoclonic jerks | more potent agonists |
